This assay deals with parental HEK293 cells. The assay can be described thus: TLR2 functional bioassay in parental HEK293 cells (negative control). The following applies: ligand stimulated HEK293 cells. It counts as cell-based. The source says:
In Vitro TLR2 Functional Bioassay The in vitro TLR2 functional bioassay was developed and optimized for use in screening soluble compound libraries to identify both TLR2 agonists and antagonists. In this study, the TLR2 functional bioassay was used as a fast high throughput screening to identify TLR2 agonist ligands by measuring the inducing activity of NF-κB. HEK293/hTLR2 cells, highly overexpressing human TLR2, were used along with the parental HEK293, cells as a negative control. […] On day 4 after 24 hrs of peptide stimulation, luciferase induced activity by the induction of NF-κB was measured. […] The luminescence intensity was measured using the standard luminescence protocol on a Victor™ X4 plate-reader equipped with a plate stacker for readout of multiple plates at a time (PerkinElmer, Waltham, Mass.). […] Data were analyzed with GraphPad Prism software and curves were generated with the appropriate nonlinear fit regression analysis.
The in vitro TLR2 functional bioassay was developed and optimized for use in high-throughput screening of soluble compound libraries to identify both TLR2 agonists and antagonists. […] On day 4 after 24 h of peptide stimulation, luciferase induced activity by the induction of NF-κB was measured. […]

Entries after “also recorded” stand apart in the source; their conditions may differ.

Regarding `CCCCCCCCCCCCCCCC(=O)OCC(CSC[C@H](N)C(=O)N[C@@H](CO)C(=O)N[C@@H](CCCCN)C(=O)N[C@@H](CCCCN)C(=O)N[C@@H](CCCCN)C(=O)N[C@@H](CCCCN)C(=O)O)OC(=O)CCCCCCCCCCCCCCC` (mixture of isomers) [Pam2CSK4, S-[2,3-bis(palmitoyloxy)-(2RS)-propyl]-[R]-cysteinyl-[S]-seryl-[S]-lysyl-[S]-lysyl-[S]-lysyl-[S]-lysine, reference compound], the “NF-κB induced luciferase activity in non-expressing TLR2 cell line” value was “did not exhibit significant NF-κB induced luciferase activity”.
Turning to `CCCCCCCCCCCCCCCC(=O)N[C@@H](CSCC(COC(=O)CCCCCCCCCCCCCCC)OC(=O)CCCCCCCCCCCCCCC)C(=O)N[C@@H](CO)C(=O)N[C@@H](CCCCN)C(=O)N[C@@H](CCCCN)C(=O)N[C@@H](CCCCN)C(=O)N[C@@H](CCCCN)C(=O)O` (mixture of isomers) [Pam3CSK4, N-Palmitoyl-S-[2,3-bis(palmitoyloxy)-(2RS)-propyl]-[R]-cysteinyl-[S]-seryl-[S]-lysyl-[S]-lysyl-[S]-lysyl-[S]-lysine, reference compound], the “NF-κB induced luciferase activity in non-expressing TLR2 cell line” value was “did not exhibit any significant NF-κB luciferase activity; also recorded: did not exhibit significant NF-κB induced luciferase activity; also recorded: no measurable luminescence; also recorded: No activity was observed”.

For the origin of these results see patent US11458212B2, “Molecular imaging of cancer cells in vivo” (H. Lee Moffitt Cancer Center and Research Institute, Inc., priority 2011, dated 2022).
